# From US20100249123A1, “NOVEL BENZAMIDE DERIVATIVES AS MODULATORS OF THE FOLLICLE STIMULATING HORMONE” (ADDEX PHARMA SA, priority 2007, published 2010)
# System: not given
# Assay: not given
# Conditions: not given
row,melting point,SMILES
1,139 to 141 °C,"COc1ccc(C(=O)Nc2ccc(C(C)(C)C#N)cc2)cc1OC [Example 1, N-[4-(Cyano-dimethyl-methyl)-phenyl]-3,4-dimethoxy-benzamide]"
2,204 to 207 °C,"COc1ccc(C(=O)Nc2ccc(C3(C#N)CC3)cc2)cc1OC [Example 2, N-[4-(1-Cyano-cyclopropyl)-phenyl]-3,4-dimethoxy-benzamide]"
3,164 to 167 °C,"N#CC1(c2ccc(NC(=O)c3ccc4c(c3)OCCO4)cc2)CCCC1 [Example 3, 2,3-Dihydro-benzo[1,4]dioxin-6-carboxylic acid [4-(1-cyano-cyclopentyl)-phenyl]-amide]"
4,59 to 61 °C,"COc1ccc(C(=O)Nc2cccc(C3(C#N)CCCC3)c2)cc1OC [Example 14, N-[3-(1-Cyano-cyclopentyl)-phenyl]-3,4-dimethoxy-benzamide]"
5,193 to 195 °C,"COc1ccc(C(=O)Nc2ccc(C(C)(C)C(N)=O)cc2)cc1OC [Example 21, N-[4-(1-Carbamoyl-1-methyl-ethyl)-phenyl]-3,4-dimethoxy-benzamide]"
6,165 to 167 °C,"COc1ccc(C(=O)Nc2ccc(C3(CNC(=O)C(C)(C)C)CCCC3)cc2)cc1OC [Example 23, N-(4-{1-[(2,2-Dimethyl-propionylamino)-methyl]-cyclopentyl}-phenyl)-3,4-dimethoxy-benzamide]"
7,195 to 197 °C,"COc1ccc(C(=O)Nc2ccc(C(C)(C)CNC(C)=O)cc2)cc1OC [Example 26, N-[4-(2-Acetylamino-1,1-dimethyl-ethyl)-phenyl]-3,4-dimethoxy-benzamide]"
8,101 to 104 °C,"COc1ccc(C(=O)Nc2ccc(C3(CNC(=O)c4cscn4)CCCC3)cc2)cc1OC [Example 29, Thiazole-4-carboxylic acid {1-[4-(3,4-dimethoxy-benzoylamino)-phenyl]-cyclopentylmethyl}-amide]"
9,67 to 69 °C,"COC(=O)NCC(C)(C)c1ccc(NC(=O)c2ccc(OC)c(OC)c2)cc1 [Example 52, {2-[4-(3,4-Dimethoxy-benzoylamino)-phenyl]-2-methyl-propyl}-carbamic acid methyl ester]"
10,165 to 167 °C,"COc1ccc(C(=O)Nc2ccc(C(C)(C)c3noc(COc4ccccc4)n3)cc2)cc1OC [Example 53, 3,4-Dimethoxy-N-{4-[1-methyl-1-(5-phenoxymethyl-[1,2,4]oxadiazol-3-yl)-ethyl]-phenyl}-benzamide]"
11,204 to 206 °C,"COc1ccc(C(=O)Nc2ccc(C3(CNC(C)=O)CC3)cc2)cc1OC [Example 54, N-{4-[1-(Acetylamino-methyl)-cyclopropyl]-phenyl}-3,4-dimethoxy-benzamide]"
12,190 to 191 °C,"COc1ccc(C(=O)Nc2ccc(C(C)(C)CN3CCOC3=O)cc2)cc1OC [Example 60, N-{4-[1,1-Dimethyl-2-(2-oxo-oxazolidin-3-yl)-ethyl]-phenyl}-3,4-dimethoxy-benzamide]"
13,110 to 112 °C,"COc1cc(C(C)(C)C#N)ccc1NC(=O)c1ccc(OC)c(OC)c1 [Example 75, N-[4-(Cyano-dimethyl-methyl)-2-methoxy-phenyl]-3,4-dimethoxy-benzamide]"
14,132 to 134 °C,"COc1ccc(C(=O)Nc2cccc(C(C)(C)CNC(C)=O)c2)cc1OC [Example 88, N-[3-(2-Acetylamino-1,1-dimethyl-ethyl)-phenyl]-3,4-dimethoxy-benzamide]"

# Biological target: T1, rat follicle stimulating hormone receptor (rFSHR) (Rattus norvegicus, UniProt P20395)
# T1 construct: expressed in transfected cells
# T1 sequence (P20395 18-692): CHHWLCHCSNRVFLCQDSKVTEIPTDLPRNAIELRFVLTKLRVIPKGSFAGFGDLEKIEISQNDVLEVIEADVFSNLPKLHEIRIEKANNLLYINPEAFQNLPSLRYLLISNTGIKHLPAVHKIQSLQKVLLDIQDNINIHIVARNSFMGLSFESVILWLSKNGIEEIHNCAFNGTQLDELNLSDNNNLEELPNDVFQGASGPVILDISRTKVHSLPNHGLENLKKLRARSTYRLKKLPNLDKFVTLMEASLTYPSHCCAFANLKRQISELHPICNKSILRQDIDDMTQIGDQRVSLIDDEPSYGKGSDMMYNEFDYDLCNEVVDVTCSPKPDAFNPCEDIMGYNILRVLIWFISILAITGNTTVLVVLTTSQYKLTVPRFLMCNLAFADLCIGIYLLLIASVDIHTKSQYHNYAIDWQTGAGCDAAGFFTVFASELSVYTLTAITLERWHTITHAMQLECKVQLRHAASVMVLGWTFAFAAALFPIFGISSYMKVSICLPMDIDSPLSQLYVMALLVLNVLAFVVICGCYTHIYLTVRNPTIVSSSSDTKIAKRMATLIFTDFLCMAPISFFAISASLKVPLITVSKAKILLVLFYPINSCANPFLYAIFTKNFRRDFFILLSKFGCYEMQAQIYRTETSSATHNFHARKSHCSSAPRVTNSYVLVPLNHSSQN
# Assay: Intracellular cAMP measurement (HTRF) assay, antagonism of EC70 of hFSH
# Format: cell-based
# Conditions: HEK293 cells expressing rFSHR, 1 ng/ml hFSH (EC70), read-out: Class (IC50 to antagonise an EC70 of FSH receptors agonist such as hFSH)
# Description: Intracellular cAMP Measurement Assay
# The Intracellular cAMP measurement assay is a functional cell-based assay used to study GPCR function. This method relies on a Time-Resolved Fluorescence (HTRF) assay to measure the cAMP accumulation upon receptor-mediated Gs protein activation in cells expressing recombinant GPCR or in cells from native tissues. In brief, this method is a competitive immunoassay between native cAMP produced by cells and the cAMP labeled with a fluorescent tag. The endogenously produced cAMP competes with exogenous added d2-labelled cAMP for the cAMP binding site on a Eu3+ cryptate labelled anti-cAMP antibody. The d2-labelled cAMP and the Eu^3+ labelled antibody produces a basal fluroresence via HTRF and therefore an intracellular increase in unlabelled cAMP is detected as decrease in this signal. cAMP is one of the most important intracellular mediators. Its concentration in cells can be increased upon binding of many hormones to their receptors. The most studied pathway consists in the release of α-subunit GTP-binding proteins following ligand-receptor interaction, which in turn activates or inhibits the ATP/cAMP conversion function of adenylate cyclase enzyme. cAMP is then involved in many complex regulatory processes such as protein kinase activation or ion channel gating. This method is widely used to study receptor activation of G protein in cells over-expressing GPCRs or in native cells, including FSH receptors expressing cells (Gabriel et al., Assay Drug Dev. Technol., 1, 291-303, 2003).
# Transfection and cell culture: The cDNA encoding the rat follicle stimulating hormone receptor (rFSHR), (accession number NM_199237, NCBI Nucleotide database browser) was subcloned into an expression vector containing also the hygromycin resistance gene. Transfection of this vector into HEK293 cells with PolyFect reagent (Qiagen) according to supplier's protocol, and hygromycin treatment allowed selection of antibiotic resistant cells which had integrated stably one or more copies of the plasmid. Positive cellular clones expressing rFSHR were identified in a functional assay measuring cAMP production in cells following stimulation by addition of purified human follicle stimulating hormone (hFSH).
# HTRF cAMP assay: On the day of the experiment, cells were detached from the Petri dish and distributed in a low volume, black-walled 384-well plate at a density of 5,000 cells/well in an assay buffer containing 1 mM IBMX to prevent cAMP degradation by cytoplasmic phosphodiesterases. The determination of the cAMP accumulation was performed using an HTRF assay (Trinquet et al., Anal. Biochem., 358, 126-135, 2006). Briefly, cells were incubated for 3 min in the presence of increasing concentrations of negative allosteric modulators (from 1 nM to 60 μM) and then 30 min in the presence of 1 ng/ml of hFSH, an agonist of rat FSH receptor, that has been determined in previous experiments to correspond to the EC70, a concentration that gives 70% of the maximal response of the agonist, and is in accordance with published data (Fox et al., Mol. Endocrin., 15, 378-389, 2001). […] Cells were then lysed by adding the HTRF assay components, the europium cryptate-labeled anti-cAMP antibody, and the XL665-labeled cAMP analog, previously diluted in a HEPES buffer (50 mM, pH 7.0) containing 0.8 M potassium fluoride, 0.2% (w/v) BSA, and 1% (v/v) Triton X-100, a percentage of detergent that ensure complete cell lysis. Assay was then incubated for 1 hr at room temperature, and HTRF signal was measured after excitation at 337 nm, and dual emission at 620 and 665 nm, using a RubyStar fluorimeter (BMG Labtechnologies). Moreover, the fluorescence ratio of an appropriate range of known concentrations of cAMP standards was also included on each assay plate to produce a standard cAMP curve. […]
row,IC50,SMILES
1,150 to 400 nM,"COc1ccc(C(=O)Nc2cccc(C(C)(C)CNC(=O)c3cnc4ccccn34)c2)cc1OC [Example 203, Imidazo[1,2-a]pyridine-3-carboxylic acid {2-[3-(3,4-dimethoxy-benzoylamino)-phenyl]-2-methyl-propyl}-amide]"
2,≥ 1000 nM,"COc1ccc(C(=O)Nc2ccc(C(C)(C)C#N)c(N3CCOCC3)c2)cc1OC [Example 204, N-[4-(Cyano-dimethyl-methyl)-3-morpholin-4-yl-phenyl]-3,4-dimethoxy-benzamide]"
3,400 to 1000 nM,"COc1ccc(C(=O)Nc2ccc(C(C)(C)C#N)c(-c3cnn(C)c3)c2)cc1OC [Example 205, N-[4-(Cyano-dimethyl-methyl)-3-(1-methyl-1H-pyrazol-4-yl)-phenyl]-3,4-dimethoxy-benzamide]"
4,< 150 nM,"COc1ccc(C(=O)Nc2ccc(C(C)(C)C#N)c(-c3cccs3)c2)cc1OC [Example 206, N-[4-(Cyano-dimethyl-methyl)-3-thiophen-2-yl-phenyl]-3,4-dimethoxy-benzamide]"
5,150 to 400 nM,COc1ccc(C(=O)Nc2ccc(C(C)(C)CNC(=O)c3ccc4[nH]cnc4c3)cc2)cc1OC [Example 207]
6,400 to 1000 nM,COc1ccc(C(=O)Nc2ccc(C(C)(C)CNC(=O)c3ccc4[nH]c(C)nc4c3)cc2)cc1OC [Example 208]
7,≥ 1000 nM,COc1ccc(C(=O)Nc2ccc(C(C)(C)CNC(=O)c3ccc4c(c3)nc(C)n4C)cc2)cc1OC [Example 209]
8,400 to 1000 nM,COc1ccc(C(=O)Nc2ccc(C(C)(C)CNC(=O)c3ccc4c(c3)n(C)c(=O)n4C)cc2)cc1OC [Example 210]
9,< 150 nM,COc1ccc(C(=O)Nc2ccc(C(C)(C)CNC(=O)c3cnc4ccc(F)cn34)cc2)cc1OC [Example 211]
10,≥ 1000 nM,"COc1ccc(C(=O)Nc2ccc(C(C)(CO)CNC(=O)c3cnc4ccccn34)cc2)cc1OC (stereo not drawn) [Example 212, Imidazo[1,2-a]pyridine-3-carboxylic acid {2-[4-(3,4-dimethoxy-benzoylamino)-phenyl]-3-hydroxy-2-methyl-propyl}-amide]"
11,150 to 400 nM,COc1ccc(C(=O)Nc2ccc(C(C)(C)CNC(=O)c3nc4ccncc4[nH]3)cc2)cc1OC [Example 214]
12,400 to 1000 nM,COc1ccc(C(=O)Nc2ccc(C(C)(C)CNC(=O)c3c[nH]c4cnccc34)cc2)cc1OC [Example 215]
13,150 to 400 nM,COc1ccc(C(=O)Nc2ccc(C(C)(C)CNC(=O)c3c[nH]c4ncc(F)cc34)cc2)cc1OC [Example 216]
14,400 to 1000 nM,"COc1ccc(C(=O)Nc2ccc(C(C)(C)CCNC(C)=O)c(-c3cccnc3)c2)cc1OC [Example 221, N-(4-(4-acetamido-2-methylbutan-2-yl)-3-(pyridin-3-yl)-phenyl)-3,4-dimethoxybenzamide]"

# More lines, now with the values behind:
row,SMILES,IC50
1,"COc1ccc(C(=O)Nc2ccc(C(C)(C)CCNC(=O)c3cnc4[nH]cnc4c3)cc2)cc1OC [Example 199, 3H-Imidazo[4,5-b]pyridine-6-carboxylic acid {3-[4-(3,4-dimethoxy-benzoylamino)-phenyl]-3-methyl-butyl}-amide]",150 to 400 nM
2,COc1ccc(C(=O)Nc2ccc(C(C)(C)CNC(=O)c3cnc4[nH]ccc4c3)cc2)cc1OC [Example 202],< 150 nM
